Assay results as given in US20080287435A1, “Active Ingredient Combinations Having Insecticide and Acaricide Properties” (Bayer CropScience AG, priority 2005, published 2008).

Key:
Myzus persicae = Myzus persicae test (cabbage leaf dip); assay type: in vivo; details: concentration 20 ppm; peach aphid on cabbage leaves (Brassica oleracea), dipped
Description: To produce a suitable preparation of active compound, one part by weight of active compound is mixed with the stated amounts of solvent and emulsifier, and the concentrate is diluted with emulsifier-containing water to the desired concentration.
Cabbage leaves (Brassica oleracea) which are heavily infested by the peach aphid (Myzus persicae) are treated by being dipped into the preparation of active compound of the desired concentration.
After the desired period of time, the kill in % is determined. 100% means that all aphids have been killed; 0% means that none of the aphids have been killed.

Plutella xylostella = Plutella xylostella test (cabbage leaf dip); assay type: in vivo; details: concentration 0.16 ppm; diamond back moth caterpillars on dipped cabbage leaves
Description: To produce a suitable preparation of active compound, 1 part by weight of active compound is mixed with the stated amounts of solvent and emulsifier, and the concentrate is diluted with emulsifier-containing Water to the desired concentration.
Cabbage leaves (Brassica oleracea) are treated by being dipped into the preparation of active compound of the desired concentration and are populated with caterpillars of the diamond back moth (Plutella xylostella) while the leaves are still moist.
After the desired period of time, the kill in % is determined. 100% means that all caterpillars have been killed; 0% means that none of the caterpillars have been killed.

CC[S+]([O-])c1c(C#N)nn(-c2c(Cl)cc(C(F)(F)F)cc2Cl)c1N (centres unmarked) [Ethiprole, ethiprole]
Kill in % after 6 d (Myzus persicae): 10% | Kill in % after 6 d (Plutella xylostella): 0%
